Several values for one entry are separate records, joined by “and”; a condition that tells them apart may be missing. Equal values may be shown once. Toxic doses and inconclusive results are not listed.
System: BDF1 mice, P388 leukemia ip, median survival T/C
Assay: NCI In Vivo Anticancer Drug Screen. Data for tumor model P388 Leukemia (intraperitoneal) in B6D2F1 (BDF1) mice
Conditions: endpoint: median survival time, higher = longer survival
In short: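 Steps: implant the tumour, treat one group with compound and another with vehicle, record survival, then divide treated by control.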

[1] = dose: 50.0 mg/kg/injection, schedule: Q01DX009 (ip), vehicle: Klucel (hydroxypropylcellulose) (HPC)
[2] = dose: 100.0 mg/kg/injection, schedule: Q01DX009 (ip), vehicle: Klucel (hydroxypropylcellulose) (HPC)
[3] = dose: 100.0 mg/kg/injection, schedule: Q04DX003 (ip), vehicle: Klucel (hydroxypropylcellulose) (HPC)
[4] = dose: 200.0 mg/kg/injection, schedule: Q01DX009 (ip), vehicle: Klucel (hydroxypropylcellulose) (HPC)
[5] = dose: 200.0 mg/kg/injection, schedule: Q04DX003 (ip), vehicle: Klucel (hydroxypropylcellulose) (HPC)
[6] = dose: 400.0 mg/kg/injection, schedule: Q04DX003 (ip), vehicle: Klucel (hydroxypropylcellulose) (HPC)
[7] = dose: 50.0 mg/kg/injection, schedule: Q01DX009 (ip), vehicle: saline with Tween-80
[8] = dose: 100.0 mg/kg/injection, schedule: Q01DX009 (ip), vehicle: saline with Tween-80
[9] = dose: 200.0 mg/kg/injection, schedule: Q01DX009 (ip), vehicle: saline with Tween-80
[10] = dose: 50.0 mg/kg/injection, schedule: Q04DX003 (ip), vehicle: Klucel (hydroxypropylcellulose) (HPC)
[11] = dose: 100.0 mg/kg/injection, schedule: Q01DX009 (ip), vehicle: saline
[12] = dose: 200.0 mg/kg/injection, schedule: Q01DX009 (ip), vehicle: saline
[13] = dose: 400.0 mg/kg/injection, schedule: Q01DX009 (ip), vehicle: saline

O=C(O)/C=C\c1c[nH]c2nccnc12
T/C (dose: 12.5 mg/kg/injection, schedule: Q01DX009 (ip), vehicle: saline): 103 % of control | T/C (dose: 25.0 mg/kg/injection, schedule: Q01DX009 (ip), vehicle: saline): 95 % of control | T/C (dose: 25.0 mg/kg/injection, schedule: Q04DX003 (ip), vehicle: saline): 97 % of control | T/C (dose: 50.0 mg/kg/injection, schedule: Q01DX009 (ip), vehicle: saline): 95 % of control | T/C (dose: 50.0 mg/kg/injection, schedule: Q04DX003 (ip), vehicle: saline): 100 % of control

C=C(C)COP(=O)(OCC(=C)C)OCC(=C)C
T/C [1]: 104 % of control | T/C [2]: 100 % of control | T/C [3]: 104 % of control | T/C [4]: 109 % of control | T/C [5]: 95 % of control | T/C [6]: 95 % of control

Clc1ccc2c(c1)nnn2OC1CCCCCC1
T/C [7]: 101 % of control | T/C [8]: 97 % of control | T/C [9]: 108 % of control

Oc1cc2c(cc1O)C1c3ccc(O)c(O)c3OCC1(O)C2 (stereo not given)
T/C [7]: 97 % of control | T/C [8]: 118 % of control | T/C [9]: 102 % of control | T/C (dose: 400.0 mg/kg/injection, schedule: Q01DX009 (ip), vehicle: saline with Tween-80): 103 % of control

COC(=O)C(Sc1ccccc1N)C1SC(=S)N(Cc2ccccc2)C1=O (stereo not given)
T/C [7]: 95 % of control | T/C [8]: 104 % of control | T/C [9]: 113 % of control

COC(=O)/C=C/c1cccnc1
T/C (dose: 25.0 mg/kg/injection, schedule: Q04DX003 (ip), vehicle: Klucel (hydroxypropylcellulose) (HPC)): 100 % of control | T/C [10]: 90 % of control | T/C [3]: 95 % of control | T/C [5]: 90 % of control

Cc1cc(NC(=O)Nc2ccc(C3=NCCCN3)cc2)ccc1NC(=O)Nc1ccc(C2=NCCCN2)cc1
T/C (dose: 29.0 mg/kg/injection, schedule: Q01DX009 (ip), vehicle: saline): 166 % of control | T/C (dose: 45.0 mg/kg/injection, schedule: Q01DX009 (ip), vehicle: saline): 153 % of control | T/C (dose: 65.0 mg/kg/injection, schedule: Q01DX009 (ip), vehicle: saline): 157 % of control | T/C [11]: 216 % of control | T/C (dose: 130.0 mg/kg/injection, schedule: Q01DX009 (ip), vehicle: saline): 243 % of control | T/C [12]: 227 % of control and 219 % of control | T/C (dose: 300.0 mg/kg/injection, schedule: Q01DX009 (ip), vehicle: saline): 169 % of control | T/C [13]: 98 % of control

O=C(Nc1ccccc1F)Nc1ccccc1Cl
T/C (dose: 25.0 mg/kg/injection, schedule: Q01DX009 (ip), vehicle: Klucel (hydroxypropylcellulose) (HPC)): 110 % of control and 112 % of control | T/C [1]: 86 % of control and 105 % of control | T/C [2]: 101 % of control and 110 % of control | T/C [4]: 97 % of control and 120 % of control | T/C (dose: 400.0 mg/kg/injection, schedule: Q01DX009 (ip), vehicle: Klucel (hydroxypropylcellulose) (HPC)): 106 % of control and 107 % of control and 117 % of control

O=S1(=O)C=Cc2ccccc21
T/C [1]: 92 % of control | T/C [2]: 100 % of control | T/C [3]: 100 % of control | T/C [4]: 107 % of control | T/C [5]: 95 % of control

O=C(NO)c1ccccc1
T/C [1]: 105 % of control and 116 % of control | T/C [10]: 103 % of control and 116 % of control | T/C [2]: 91 % of control and 104 % of control and 105 % of control | T/C [3]: 106 % of control and 108 % of control and 113 % of control | T/C [4]: 107 % of control and 109 % of control | T/C [5]: 104 % of control (2×) and 108 % of control | T/C [6]: 100 % of control and 116 % of control

NC(=NCCCC(NC(=O)c1ccccc1)C(=O)O)NC(=O)c1ccccc1 (stereo not given)
T/C [7]: 103 % of control | T/C [8]: 120 % of control | T/C [9]: 118 % of control

CCCCCCCCCCCCSCCSCCSCCCCCCCCCCCC
T/C (dose: 100.0 mg/kg/injection, schedule: Q01DX001 (ip), vehicle: saline with Tween-80): 95 % of control | T/C (dose: 200.0 mg/kg/injection, schedule: Q01DX001 (ip), vehicle: saline with Tween-80): 95 % of control | T/C (dose: 400.0 mg/kg/injection, schedule: Q01DX001 (ip), vehicle: saline with Tween-80): 90 % of control

CCCCCCCCCCCC#N
T/C [11]: 95 % of control | T/C [12]: 95 % of control | T/C [13]: 100 % of control

COc1ccc(-c2c(C#N)cnc(C)c2C)c(O)c1OC
T/C (dose: 0.2 mg/kg/injection, schedule: Q01DX009 (ip), vehicle: Klucel (hydroxypropylcellulose) (HPC)): 95 % of control
